Laboratory results: patent publication US3950525A, “Relaxation of smooth muscle in a mammal” (Pfizer Inc., priority 1975, dated 1976)
Counter-ions that a name gives are not always drawn. Like-named read-outs stand apart in the source and are kept apart here.

Legend:
[1] = system: collagen induced platelet aggregation; experiment: In Vivo Inhibition of Platelet Aggregation (collagen induced aggregation in plasma of dosed dogs); design: species or system mongrel dogs; conditions: for Inhibition to Collagen, High: high collagen (1:20 dilution); for Inhibition to Collagen, Low: low collagen (1:40-50 dilution)
Method: The capacity of the compounds of the present invention to inhibit platelet aggregation in a modified in vivo test is measured by the following procedure: Unanesthetized fasted adult mongrel dogs of either sex are dosed orally (P.O.) or intravenously (I.V.) with the particular test compound. Blood samples are taken at hourly intervals and placed in plastic centrifuge tubes containing 0.1 volume 3% sodium citrate. Platelet-rich plasma is separated by centrifugation at 100 G for 10 minutes at 20° C. and treated with a collagen suspension in saline. The effect of two different levels of collagen concentration are examined; the first is a 1:20 dilution, i.e. 1 ml. of collagen suspension per 20 ml. of platelet-rich plasma (high dose), and the second, a 1:40-50 dilution (low dose). Changes in optical density are then followed with a Spectronic 20 colorimeter attached to a Houston Instrument TY Recorder. Platelet aggregation is indicated by a decrease in optical density. […] Measurements are carried out on the hourly samples, allowing for the determination of a duration of the initial effect.

[2] = system: collagen induced platelet aggregation; experiment: In Vitro Inhibition of Platelet Aggregation (collagen induced, rabbit platelet-rich plasma); type: cell-based; conditions: Oryctolagus cuniculus, 10 min; for inhibition at 600 µM: 6 × 10^^-4 mol./l.; for inhibition at 60 µM: 6 × 10^^-5 mol./l.; for inhibition at 6 µM: 6 × 10^^-6 mol./l.
Method: The ability of the compounds of the present invention to inhibit platelet aggregation in vitro is measured according to the method of Born, et al., J. Physiol., 168, 178 (1963) and comprises the following procedure: Anesthetized male rabbits are bled from a carotid artery into plastic centrifuge tubes containing 0.1 volume 3% sodium citrate. Platelet-rich plasma is separated by centrifugation at 100 G for 10 minutes at 20° C. […] After 10 minutes of incubation with the platelet-rich plasma at room temperature, collagen, a protein known to cause platelet aggregation, is added (0.27 ml. collagen/4 ml. plasma) and changes in the optical density are followed with a Spectronic 20 colorimeter attached to a Houston Instrument TY Recorder. Platelet aggregation is indicated by a decrease in optical density. The relative potency of the compounds of the present invention are thus rated on their ability to inhibit (percent) collagen induced platelet aggregation.

[3] = system: histamine aerosol induced bronchoconstriction; experiment: Bronchodilator Activity (protection of conscious guinea pigs against histamine aerosol); type: in vivo; conditions: for inhibition in vivo at 60 mg/kg: Cavia porcellus, 1 h, read-out: % Protection
Method: Subsequent to this administration, each animal is challenged with histamine aerosol. […] Immediately after the container is subjected to the histamine spray the animal is placed within it. At the end of one minute of exposure, the respiratory status, which is a reflection of bronchoconstriction, is evaluated. Evaluation levels are designated and scored as normal breathing (0), slight deepened breathing (1), labored breathing (2), severely labored breathing and […] (3) and unconsciousness (4). Each group of animals contains 8 to 10 individual and a control group containing the same approximate number is used. […] The dose, which is given orally, is 60 mg./kg. and the animals are challenged with histamine 60 minutes later.

[4] = 60 mg./kg. oral, histamine challenge 60 minutes later

SMILES | inhibition at 600 µM [2] | inhibition at 60 µM [2] | inhibition at 6 µM [2] | also measured
CCN(CCO)c1cc(-c2ccccc2)ncn1.Cl [Ar=C6H5; R1=HO(CH2)2; R2=C2H5; R3=H, 4-[Ethyl(2-hydroxyethyl)amino]-6-phenylpyrimidine hydrochloride] | 99% | 97% | 35% | Duration ([1]; 10 mg./kg. I.V.): 3 h; Inhibition to Collagen, High ([1]; 10 mg./kg. I.V.): Complete (complete (95-100%)); Inhibition to Collagen, Low ([1]; 10 mg./kg. I.V.): Complete (complete (95-100%)); Duration ([1]; 25 mg./kg. P.O.): 2 h; Inhibition to Collagen, High ([1]; 25 mg./kg. P.O.): Complete (complete (95-100%)); Inhibition to Collagen, Low ([1]; 25 mg./kg. P.O.): Complete (complete (95-100%))
CCCc1c(O)ncnc1-c1ccccc1 [R3=n-C3H7] | – | – | – | inhibition in vivo at 60 mg/kg [3, 4]: 25%
CCCc1c(-c2cccc(NC(C)=O)c2)ncnc1N(CC)CC | – | – | – | inhibition in vivo at 60 mg/kg ([3]; po): 29%
CCc1c(O)ncnc1-c1ccccc1 [R3=C2H5, 4-hydroxy-5-ethyl-6-phenylpyrimidine] | – | – | – | inhibition in vivo at 60 mg/kg [3, 4]: 62%; activity as a bronchodilator (in words) ([3]; guinea pig, in vivo): unexpected, outstanding activity as a bronchodilator
CC(C)c1c(O)ncnc1-c1ccccc1 [R3=i-C3H7] | – | – | – | inhibition in vivo at 60 mg/kg ([3]; po): 16%
CCc1c(-c2cccc(NC(C)=O)c2)ncnc1N(CC)CC | – | – | – | inhibition in vivo at 60 mg/kg [3, 4]: 35%
CCCN(CCC)c1ncnc(-c2cccc(NC(C)=O)c2)c1C | – | – | – | inhibition in vivo at 60 mg/kg [3, 4]: 17%
CCc1c(-c2cccc(NC(C)=O)c2)ncnc1N(C)C | – | – | – | inhibition in vivo at 60 mg/kg [3, 4]: 10%
Oc1cc(-c2ccccc2)ncn1 [R3=H, 4-Hydroxy-6-phenylpyrimidine] | – | – | – | inhibition in vivo at 60 mg/kg ([3]; po): 12%
CCN(CC)c1cc(-c2cccc(NC(=O)C(C)C)c2)ncn1 [4-diethylamino-6-(m-isobutrylaminophenyl)pyrimidine] | – | – | – | inhibition in vivo at 60 mg/kg ([3]; po): 22%
Cl.FC(F)(F)CNc1cc(-c2ccccc2)ncn1 [Ar=C6H5; R1=CF3CH2; R2=H; R3=H, 4-(2,2,2-Trifluoroethylamino)-6-phenylpyrimidine hydrochloride] | – | 83% | 32% | Duration ([1]; 10 mg./kg. I.V.): 3 h; Inhibition to Collagen, High ([1]; 10 mg./kg. I.V.): Complete (complete (95-100%)); Duration ([1]; 25 mg./kg. P.O.): 3 h; Inhibition to Collagen, High ([1]; 25 mg./kg. P.O.): Partial (partial (15-95%)); Duration ([1]; 35 mg./kg. P.O.): 4 h; Inhibition to Collagen, High ([1]; 35 mg./kg. P.O.): Complete (complete (95-100%)); Inhibition to Collagen, Low ([1]; 35 mg./kg. P.O.): Complete (complete (95-100%))
CCN(CC)c1cc(-c2ccco2)ncn1 [Ar=2-furyl; R1=C2H5; R2=C2H5; R3=H, 4-Diethylamino-6-(2-furyl)pyrimidine hydrochloride] | – | – | – | inhibition in vivo at 60 mg/kg [3, 4]: 15%
c1ccc(-c2cc(N3CCOCC3)ncn2)cc1 [Ar=C6H5; R1,R2=--(CH2)2O(CH2)2--; R3=H, 4-(4-Morpholinyl)-6-phenylpyrimidine hydrochloride] | 94% | 75% | 37% | –
C=CCN(CC=C)c1cc(-c2ccc(OC)cc2)ncn1 | 90% | – | 55% | –
CCNc1cc(-c2ccc(OC)cc2)ncn1 [Ar=4-CH3OC6H4; R1=H; R2=C2H5; R3=H] | 92% | 64% | 24% | –
CCCN(CCC)c1cc(-c2ccccc2)ncn1 [Ar=C6H5; R1=n-C3H7; R2=n-C3H7; R3=H] | 83% | 49% | 41% | –
CCN(CC(F)(F)F)c1cc(-c2cccs2)ncn1 [Ar=2-thienyl; R1=CF3CH2; R2=C2H5; R3=H] | 75% | 65% | 58% | –
CCN(CC)c1cc(-c2cccc(NC(=O)OC)c2)ncn1 | 95% | 11% | – | –
CN1CCN(c2cc(-c3ccccc3)ncn2)CC1 [4-(4-Methyl-1-piperazinyl)-6-phenylpyrimidine dihydrochloride] | 99% | 99% | 59% | –

SMILES | inhibition at 600 µM [2] | inhibition at 60 µM [2] | inhibition at 6 µM [2] | also measured
CN(C)c1cc(-c2ccccc2)ncn1 [Ar=C6H5; R1=CH3; R2=CH3; R3=H] | 99% | 55% | – | –
CN(C)CCNc1cc(-c2ccccc2)ncn1 [Ar=C6H5; R1=(CH3)2N(CH2)2; R2=H; R3=H] | 99% | 30% | – | –
CCN(CC)c1ncnc(-c2ccccc2)c1C [Ar=C6H5; R1=C2H5; R2=C2H5; R3=CH3, 4-diethylamino-5-methyl-6-phenylpyrimidine] | – | – | 80% | –
OCCN(CCO)c1cc(-c2ccccc2)ncn1 [Ar=C6H5; R1=HO(CH2)2; R2=HO(CH2)2; R3=H, 4-[Bis(2-hydroxyethyl)amino]-6-phenylpyrimidine hydrochloride] | 84% | 27% | – | –
CCN(CC)c1cc(-c2ccc(Cl)cc2)ncn1 [Ar=4-ClC6H4; R1=C2H5; R2=C2H5; R3=H, 4-Diethylamino-6-(p-chlorophenyl)pyrimidine hydrochloride] | – | 73% | 32% | –
CCN(CC)c1cc(-c2ccc(NC(C)=O)cc2)ncn1 [Ar=4-CH3CONHC6H4; R1=C2H5; R2=C2H5; R3=H, 4-diethylamino-6-(p-acetylaminophenyl)pyrimidine] | – | – | – | inhibition in vivo at 60 mg/kg ([3]; po): 56%
CCCC(=O)Nc1cccc(-c2cc(N(CC)CC)ncn2)c1 | 36% | 8% | – | –
Cn1c(=O)c2[nH]cnc2n(C)c1=O [theophylline, reference compound] | – | – | – | inhibition in vivo at 60 mg/kg ([3]; po): 25%
CN1CCN(c2cc(-c3ccc(Cl)cc3)ncn2)CC1 [4-(4-Methyl-1-piperazinyl)-6-(p-chlorophenyl)pyrimidine hydrochloride] | 99% | 65% | 2% | –
CCCN(CCC)c1cc(-c2cccc(N)c2)ncn1 [Ar=3-NH2C6H4; R1=n-C3H7; R2=n-C3H7; R3=H] | 95% | 97% | 32% | –
CCN(CCO)c1cc(-c2ccc(OC)cc2)ncn1 | 90% | 71% | 55% | –
CCc1c(-c2ccc3ccccc3c2)ncnc1N(CC)CC [Ar=2-naphthyl; R1=C2H5; R2=C2H5; R3=C2H5, 4-Diethylamino-5-ethyl-6-(2-naphthyl)pyrimidine hydrochloride] | – | – | – | inhibition in vivo at 60 mg/kg ([3]; po): 47%
COc1ccc(-c2cc(N(C)C)ncn2)cc1 [Ar=4-CH3OC6H4; R1=CH3; R2=CH3; R3=H] | 89% | 88% | 48% | –
CCCN(CCC)c1cc(-c2cccs2)ncn1 [Ar=2-thienyl; R1=n-C3H7; R2=n-C3H7; R3=H] | 60% | 60% | 66% | –
CC(C)Nc1cc(-c2ccccc2)ncn1 [Ar=C6H5; R1=i-C3H7; R2=H; R3=H] | – | 88% | 29% | –
CCN(CC)c1cc(-c2ccc(OC)cc2)ncn1 [Ar=4-CH3OC6H4; R1=C2H5; R2=C2H5; R3=H, 4-diethylamino-6-(p-methoxyphenyl)pyrimidine] | – | 86% | 42% | Inhibition to Collagen, High ([1]; 10 mg./kg. I.V.): None (none (0-15%)); Inhibition to Collagen, Low ([1]; 10 mg./kg. I.V.): None (none (0-15%)); Inhibition to Collagen, High ([1]; 40 mg./kg. P.O.): Partial (partial (15-95%)); Duration ([1]; 40 mg./kg. P.O., line with high collagen result): 1 h; Duration ([1]; 40 mg./kg. P.O., line with low collagen result): 4 h; Inhibition to Collagen, Low ([1]; 40 mg./kg. P.O.): Complete (complete (95-100%))
CCNc1cc(-c2cccs2)ncn1 [Ar=2-thienyl; R1=C2H5; R2=H; R3=H] | 99% | 75% | 35% | –
C=CCN(CC=C)c1cc(-c2cccs2)ncn1 | – | 50% | 40% | –
c1ccc(-c2cc(NCc3cccnc3)ncn2)cc1 [Ar=C6H5; R1=3-picolyl; R2=H; R3=H, 4-(3-Pyridylmethylamino)-6-phenylpyrimidine dihydrochloride] | 98% | 31% | 12% | –
